# Test results reported in US9951077B2, “Aminopyridazinone compounds as protein kinase inhibitors” (ETERNITY BIOSCIENCE INC., priority 2014, dated 2018).
# Molecular target: Btk (Homo sapiens (Human), UniProt Q06187)
# Assay: Btk kinase assay (ADP-Glo)
# Type: biochemical
# Settings: ATP 1.2 μM, 60 minutes, room temperature; read-out: BTK enzyme IC50
# Description: The Btk kinase assay was performed using a ADP-Glo Btk kinase assay kit purchased from Promega (Madison, Wis.). The assay was conducted according to the protocols provided in the assay kit. In brief, the enzyme reaction was carried out in the kinase reaction buffer containing Btk (2 ng/μl), ATP (1.2 μM), poly GT peptide (0.3 μM), DTT (40 nM), MnCl2 (1.4 mM), and 1×kinase buffer (included in the kit) in the presence or absence of the tested articles at various concentrations in 384-well plate at room temperature (22±1° C.) for 60 minutes. The final reaction volume for each reaction was 10 μl. Then, 4 μl of ADP-Glo reagent (included in the kit) was added into the reaction and the plate was further incubated for another 40 minutes to terminate the reaction and deplete the remaining ATP. Finally, 10 μl of the kinase detection reagent was added into each reaction to simultaneously convert ADP to ATP and allow the newly synthesized ATP to be measured by a plate-reading luminometer (Victor X5 2030 multilabel reader, PerkinElmer). IC50 value was calculated using appropriate programs in GraphPad Prism by plotting the logarithm of the concentration versus percent inhibition as compared with a vehicle (DMSO) control.
# Chain of Btk (Q06187 whole entry): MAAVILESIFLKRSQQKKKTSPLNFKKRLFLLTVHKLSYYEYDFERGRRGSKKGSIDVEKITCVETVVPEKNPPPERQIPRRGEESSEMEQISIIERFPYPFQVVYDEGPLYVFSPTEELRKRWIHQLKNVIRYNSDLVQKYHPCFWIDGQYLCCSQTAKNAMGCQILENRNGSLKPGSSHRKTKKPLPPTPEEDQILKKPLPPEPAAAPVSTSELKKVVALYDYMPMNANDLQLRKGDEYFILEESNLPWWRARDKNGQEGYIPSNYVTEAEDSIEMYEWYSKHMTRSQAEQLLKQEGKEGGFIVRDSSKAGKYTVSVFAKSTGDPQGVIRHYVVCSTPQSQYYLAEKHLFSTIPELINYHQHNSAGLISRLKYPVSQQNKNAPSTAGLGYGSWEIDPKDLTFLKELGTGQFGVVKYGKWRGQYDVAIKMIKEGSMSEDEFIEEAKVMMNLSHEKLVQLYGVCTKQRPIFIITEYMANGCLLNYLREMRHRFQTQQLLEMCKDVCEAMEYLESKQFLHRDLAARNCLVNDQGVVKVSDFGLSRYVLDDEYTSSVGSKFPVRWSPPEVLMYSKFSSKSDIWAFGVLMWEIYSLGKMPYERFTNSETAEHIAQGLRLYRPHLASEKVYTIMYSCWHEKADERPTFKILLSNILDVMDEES
row,SMILES,IC50 [µM]
1,"C=CC(=O)N1CCC[C@@H](n2cc(-c3ccc(Oc4ccccc4)cc3)c3c(N)n[nH]c(=O)c32)C1 [Example 1, (R)-1-(1-acryloylpiperidin-3-yl)-4-amino-3-(4-phenoxyphenyl)-1H-pyrrolo[2,3-d]pyridazin-7(6H)-one]",≤ 0.01
2,"C=CC(=O)N1CC[C@H](n2cc(-c3ccc(Oc4ccccc4)cc3)c3c(N)n[nH]c(=O)c32)C1 [Example 3, 4-amino-3-(4-phenoxyphenyl)-1-[(3S)-1-prop-2-enoylpyrrolidin-3-yl]-6H-pyrrolo[2,3-d]pyridazin-7-one]",0.01 to 1
3,"C=CC(=O)N1CC[C@@H](n2cc(-c3ccc(Oc4ccccc4)cc3)c3c(N)n[nH]c(=O)c32)C1 [Example 4, 4-amino-3-(4-phenoxyphenyl)-1-[(3R)-1-prop-2-enoylpyrrolidin-3-yl]-6H-pyrrolo[2,3-d]pyridazin-7-one]",0.01 to 1
4,"C=CC(=O)N1CC(n2cc(-c3ccc(Oc4ccccc4)cc3)c3c(N)n[nH]c(=O)c32)C1 [Example 5, 4-amino-3-(4-phenoxyphenyl)-1-(1-prop-2-enoylazetidin-3-yl)-6H-pyrrolo[2,3-d]pyridazin-7-one]",0.01 to 1
5,"C=CC(=O)N1CCC(Cn2cc(-c3ccc(Oc4ccccc4)cc3)c3c(N)n[nH]c(=O)c32)CC1 [Example 10, 4-amino-3-(4-phenoxyphenyl)-1-[(1-prop-2-enoyl-4-piperidyl)methyl]-6H-pyrrolo[2,3-d]pyridazin-7-one]",0.01 to 1
6,"C=CC(=O)N1CC(Cn2cc(-c3ccc(Oc4ccccc4)cc3)c3c(N)n[nH]c(=O)c32)C1 [Example 12, 4-amino-3-(4-phenoxyphenyl)-1-[(1-prop-2-enoylazetidin-3-yl)methyl]-6H-pyrrolo[2,3-d]pyridazin-7-one]",0.01 to 1
7,"C=CC(=O)N1C[C@H](n2cc(-c3ccc(Oc4ccccc4)cc3)c3c(N)n[nH]c(=O)c32)CC(F)(F)C1 [Example 14, (R)-1-(1-acryloyl-5,5-difluoropiperidin-3-yl)-4-amino-3-(4-phenoxyphenyl)-1H-pyrrolo[2,3-d]pyridazin-7(6H)-one]",≤ 0.01

# Results, then the molecule that gave them:
row,IC50 [µM],SMILES
1,0.01 to 1,"C=CC(=O)N1CCC[C@H]1Cn1cc(-c2ccc(Oc3ccccc3)cc2)c2c(N)n[nH]c(=O)c21 [Example 6, 4-amino-3-(4-phenoxyphenyl)-1-[[(2S)-1-prop-2-enoylpyrrolidin-2-yl]methyl]-6H-pyrrolo[2,3-d]pyridazin-7-one]"
2,1 to 100,"C=CC(=O)N1CCC[C@@H]1Cn1cc(-c2ccc(Oc3ccccc3)cc2)c2c(N)n[nH]c(=O)c21 [Example 7, 4-amino-3-(4-phenoxyphenyl)-1-[[(2R)-1-prop-2-enoylpyrrolidin-2-yl]methyl]-6H-pyrrolo[2,3-d]pyridazin-7-one]"
3,0.01 to 1,"C=CC(=O)N1CCC(Cn2cc(-c3ccc(Oc4ccccc4)cc3)c3c(N)n[nH]c(=O)c32)C1 (stereo not shown) [Example 8, 4-amino-3-(4-phenoxyphenyl)-1-[(1-prop-2-enoylpyrrolidin-3-yl)methyl]-6H-pyrrolo[2,3-d]pyridazin-7-one]"
4,1 to 100,"C=CC(=O)N1CCC(n2cc(-c3ccc(Oc4ccccc4)cc3)c3c(N)n[nH]c(=O)c32)CC1 [Example 9, 4-amino-3-(4-phenoxyphenyl)-1-(1-prop-2-enoyl-4-piperidyl)-6H-pyrrolo[2,3-d]pyridazin-7-one]"
5,≤ 0.01,"C=CC(=O)N1CCC(F)C(n2cc(-c3ccc(Oc4ccccc4)cc3)c3c(N)n[nH]c(=O)c32)C1 (stereo not shown) [Example 13, 1-(1-acryloyl-4-fluoropiperidin-3-yl)-4-amino-3-(4-phenoxyphenyl)-1H-pyrrolo[2,3-d]pyridazin-7(6H)-one]"
6,0.01 to 1,"C=CC(=O)NC1C2CCC1CC(n1cc(-c3ccc(Oc4ccccc4)cc3)c3c(N)n[nH]c(=O)c31)C2 (stereo not shown) [Example 15, N-(3-(4-amino-7-oxo-3-(4-phenoxyphenyl)-6,7-dihydro-1H-pyrrolo[2,3-d]pyridazin-1-yl)bicyclo[3.2.1]octan-8-yl)acrylamide]"
